Reference: patent US10168342B2, “Lipid probes and uses thereof” (THE SCRIPPS RESEARCH INSTITUTE, priority 2015, dated 2019)
Read-outs that look alike come from different tables or passages of the source.

Experiments:
[1] = molecular target: AEA-DA lipid probe targets in Neuro2a cells (Mus musculus, UniProt Q8BVU5); conditions: protein Nudt9, Neuro2a cells
[2] = molecular target: T1, AEA-DA lipid probe targets in Neuro2a cells (Mus musculus, UniProt Q8C0K5)
T1 sequence (Q8C0K5 1-332): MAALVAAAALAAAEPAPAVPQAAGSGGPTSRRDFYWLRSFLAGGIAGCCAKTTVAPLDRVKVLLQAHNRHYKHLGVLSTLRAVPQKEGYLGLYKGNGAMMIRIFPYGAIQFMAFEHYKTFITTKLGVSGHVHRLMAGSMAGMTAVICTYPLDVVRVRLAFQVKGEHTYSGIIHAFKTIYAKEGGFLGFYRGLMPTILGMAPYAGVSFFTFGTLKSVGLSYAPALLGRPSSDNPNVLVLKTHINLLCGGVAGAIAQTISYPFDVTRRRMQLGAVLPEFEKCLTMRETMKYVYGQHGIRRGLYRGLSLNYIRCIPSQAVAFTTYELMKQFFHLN

[3] = molecular target: T2, humanized rat FAAH (Rattus norvegicus, UniProt P97612, A377T/F194Y/I491V/L192F/S435N/V495M); assay: FAAH activity by AEA hydrolysis, purified enzyme; assay type: biochemical; conditions: for inhibition of FAAH activity (AEA hydrolysis): 50 or 100 μM; for IC50: read-out: IC50 against purified recombinant FAAH
T2 sequence (P97612 30-579 L192F/F194Y/A377T/S435N/I491V/V495M limits assumed): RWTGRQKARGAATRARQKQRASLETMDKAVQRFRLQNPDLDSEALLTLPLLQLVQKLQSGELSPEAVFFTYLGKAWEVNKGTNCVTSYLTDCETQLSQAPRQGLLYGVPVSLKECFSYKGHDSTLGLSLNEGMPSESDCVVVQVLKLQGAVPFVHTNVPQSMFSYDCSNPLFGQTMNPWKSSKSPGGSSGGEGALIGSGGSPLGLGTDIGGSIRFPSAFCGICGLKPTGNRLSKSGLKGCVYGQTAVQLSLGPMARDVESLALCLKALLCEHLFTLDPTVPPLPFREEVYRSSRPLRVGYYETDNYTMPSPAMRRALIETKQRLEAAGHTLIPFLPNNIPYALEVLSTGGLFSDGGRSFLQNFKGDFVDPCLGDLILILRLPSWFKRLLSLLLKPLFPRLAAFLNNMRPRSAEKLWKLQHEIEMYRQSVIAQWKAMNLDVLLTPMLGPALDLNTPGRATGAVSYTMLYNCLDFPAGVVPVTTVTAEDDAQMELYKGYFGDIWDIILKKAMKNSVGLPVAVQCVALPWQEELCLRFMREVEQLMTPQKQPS
Description: (§1) FAAH activity was measured by AEA hydrolysis: The membrane fraction of Neuro2a lysates (200 μL, 2.0 mg/mL) was incubated with DMSO or the test compound (1.0-250 μM) at 37° C. After 15 min, AEA-d8 (25 μM) was added and the samples were incubated for an additional 30 min and then quenched by the addition of two volumes of CHCl3:MeOH (2:1) containing pentadecanoic acid (PDA) (1.0 nmol) as an internal standard. After centrifuging (2,000×g, 5 min, 4° C.) to separate the organic and aqueous layers, the lower organic layer was transferred to a clean vial and analyzed by LC/MS as previously described. (Long et al., 2009) Pure humanized rat FAAH (Mileni et al., 2008) (5.0 ng/μL) was assayed in the same manner. Product levels were quantified by determining peak areas in relation to PDA.

[4] = molecular target: T3, endogenous FAAH in Neuro2a lysates (Mus musculus, UniProt O08914); assay: FAAH activity by AEA hydrolysis in Neuro2a lysates; assay type: biochemical; conditions: for IC50: read-out: IC50 against endogenous FAAH in Neuro2a lysates; for inhibition of FAAH activity in Neuro2a lysates: up to 250 μM
T3 construct: endogenous in cells; host or cells: Neuro2a membrane fraction
T3 sequence (O08914 1-579): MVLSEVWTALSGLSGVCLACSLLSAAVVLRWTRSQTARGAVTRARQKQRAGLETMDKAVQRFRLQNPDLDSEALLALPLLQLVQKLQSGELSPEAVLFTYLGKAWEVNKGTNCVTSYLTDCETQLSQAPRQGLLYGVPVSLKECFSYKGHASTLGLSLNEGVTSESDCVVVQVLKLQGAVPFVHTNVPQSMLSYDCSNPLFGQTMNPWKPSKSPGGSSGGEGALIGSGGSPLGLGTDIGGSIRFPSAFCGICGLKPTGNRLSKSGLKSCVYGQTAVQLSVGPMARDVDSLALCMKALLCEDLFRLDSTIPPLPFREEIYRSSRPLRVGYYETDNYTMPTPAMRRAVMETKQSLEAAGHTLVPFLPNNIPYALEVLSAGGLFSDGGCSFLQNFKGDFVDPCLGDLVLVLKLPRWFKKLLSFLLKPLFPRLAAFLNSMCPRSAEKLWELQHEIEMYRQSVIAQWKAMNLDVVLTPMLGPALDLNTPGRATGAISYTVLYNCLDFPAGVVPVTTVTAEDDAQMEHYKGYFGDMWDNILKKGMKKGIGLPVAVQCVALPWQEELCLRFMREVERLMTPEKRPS
Description: as §1

Chain of AEA-DA lipid probe targets in Neuro2a cells (Mus musculus, UniProt Q8BVU5) (Q8BVU5 47-350): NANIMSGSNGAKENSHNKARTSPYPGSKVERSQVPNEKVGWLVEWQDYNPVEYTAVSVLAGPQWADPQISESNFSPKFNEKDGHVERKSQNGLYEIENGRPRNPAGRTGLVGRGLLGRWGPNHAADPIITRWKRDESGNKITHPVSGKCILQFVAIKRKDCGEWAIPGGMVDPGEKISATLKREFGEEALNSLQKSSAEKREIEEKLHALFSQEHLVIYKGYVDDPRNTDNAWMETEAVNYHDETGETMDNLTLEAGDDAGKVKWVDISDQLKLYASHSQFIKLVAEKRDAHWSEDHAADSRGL

SMILES	SILAC ratio (AEA-DA competition) ([1]; competitor 200 μM)	SILAC ratio Slc25a16 ([2]; competitor 200 μM)	inhibition of FAAH activity (AEA hydrolysis) [3]	IC50 [3] [µM]	IC50 [4] [µM]	inhibition of FAAH activity in Neuro2a lysates [4]	SILAC ratio (AEA-DA competition) ([1]; competitor 25 μM)	SILAC ratio Slc25a16 ([2]; competitor 10 μM)	SILAC ratio Slc25a16 ([2]; competitor 25 μM)
CCCCC/C=C\C/C=C\C/C=C\C/C=C\CCCC(=O)NCCO [AEA, anandamide, reference compound]	1.0	1.5							
CN1CCN(C(=O)c2c(-c3ccccc3)c3cc([N+](=O)[O-])ccc3n2C)CC1 [KML110, (1-Methyl-5-nitro-3-phenyl-1H-indol-2-yl)(4-methylpiperazin-1-yl)methanone]			do not substantially inhibit	> 100	> 100	minimal inhibition	1.9		
CN1CCN(C(=O)c2[nH]c3ccc([N+](=O)[O-])cc3c2-c2ccccc2)CC1 [MJN228, (4-Methylpiperazin-1-yl)(5-nitro-3-phenyl-1H-indol-2-yl)methanone]			do not substantially inhibit	> 100	> 100	minimal inhibition		1.2	1.1
